Here are results for 27 compounds from patent US10975056B2 (GlaxoSmithKline Intellectual Property Development Limited, priority 2016, dated 2021).

For one assay, the target named is DNMT1 (Homo sapiens, UniProt P26358). Description: DNMT1 biochemical activity, breaklight assay and/or SPA assay.
In assay [1] the test system is erythroid progenitor cells (EPCs). The experiment in a line: Fetal hemoglobin (HbF) ELISA in day 7 erythroid progenitor cells.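 Further: for fetal hemoglobin induction normalized to vehicle-treated cells.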 It counts as cell-based, human. Particulars: Homo sapiens, Erythroid progenitor cell, HbF ELISA, day 7 EPCs, 5 days; read-out: EPC ELISA (pEC50 category) (converted). The method in brief:
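CD34+-derived EPCs, 1,000 cells/well, rhEPO 3 U/mL; Compound A 22-pt series, […]; 5 d, 37° C, 5% CO2. Freeze-thaw lysis, anti-HbF capture + HRP anti-HbF, TMB, OD450. Normalized to DMSO wells.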

Setting [2] is: binned activity in either the breaklight or the SPA assay.
Setting [3] is: binned activity in either the breaklight or the SPA assay, read-out: DNMT1 BioChemical (pIC50 category) (converted).
The mark [4] stands for this setting: breaklight assay and/or SPA assay, repeated experimental runs, read-out: average pIC50 against DNMT1 (converted).

The structures appear in SMILES notation. Structures can show the parent of a compound that is named as a salt. Where two headings read alike, the source gives them in different places. A value given as a limit tells only on which side of the number the result lay.

Sequence of DNMT1 (P26358 whole entry, looked up): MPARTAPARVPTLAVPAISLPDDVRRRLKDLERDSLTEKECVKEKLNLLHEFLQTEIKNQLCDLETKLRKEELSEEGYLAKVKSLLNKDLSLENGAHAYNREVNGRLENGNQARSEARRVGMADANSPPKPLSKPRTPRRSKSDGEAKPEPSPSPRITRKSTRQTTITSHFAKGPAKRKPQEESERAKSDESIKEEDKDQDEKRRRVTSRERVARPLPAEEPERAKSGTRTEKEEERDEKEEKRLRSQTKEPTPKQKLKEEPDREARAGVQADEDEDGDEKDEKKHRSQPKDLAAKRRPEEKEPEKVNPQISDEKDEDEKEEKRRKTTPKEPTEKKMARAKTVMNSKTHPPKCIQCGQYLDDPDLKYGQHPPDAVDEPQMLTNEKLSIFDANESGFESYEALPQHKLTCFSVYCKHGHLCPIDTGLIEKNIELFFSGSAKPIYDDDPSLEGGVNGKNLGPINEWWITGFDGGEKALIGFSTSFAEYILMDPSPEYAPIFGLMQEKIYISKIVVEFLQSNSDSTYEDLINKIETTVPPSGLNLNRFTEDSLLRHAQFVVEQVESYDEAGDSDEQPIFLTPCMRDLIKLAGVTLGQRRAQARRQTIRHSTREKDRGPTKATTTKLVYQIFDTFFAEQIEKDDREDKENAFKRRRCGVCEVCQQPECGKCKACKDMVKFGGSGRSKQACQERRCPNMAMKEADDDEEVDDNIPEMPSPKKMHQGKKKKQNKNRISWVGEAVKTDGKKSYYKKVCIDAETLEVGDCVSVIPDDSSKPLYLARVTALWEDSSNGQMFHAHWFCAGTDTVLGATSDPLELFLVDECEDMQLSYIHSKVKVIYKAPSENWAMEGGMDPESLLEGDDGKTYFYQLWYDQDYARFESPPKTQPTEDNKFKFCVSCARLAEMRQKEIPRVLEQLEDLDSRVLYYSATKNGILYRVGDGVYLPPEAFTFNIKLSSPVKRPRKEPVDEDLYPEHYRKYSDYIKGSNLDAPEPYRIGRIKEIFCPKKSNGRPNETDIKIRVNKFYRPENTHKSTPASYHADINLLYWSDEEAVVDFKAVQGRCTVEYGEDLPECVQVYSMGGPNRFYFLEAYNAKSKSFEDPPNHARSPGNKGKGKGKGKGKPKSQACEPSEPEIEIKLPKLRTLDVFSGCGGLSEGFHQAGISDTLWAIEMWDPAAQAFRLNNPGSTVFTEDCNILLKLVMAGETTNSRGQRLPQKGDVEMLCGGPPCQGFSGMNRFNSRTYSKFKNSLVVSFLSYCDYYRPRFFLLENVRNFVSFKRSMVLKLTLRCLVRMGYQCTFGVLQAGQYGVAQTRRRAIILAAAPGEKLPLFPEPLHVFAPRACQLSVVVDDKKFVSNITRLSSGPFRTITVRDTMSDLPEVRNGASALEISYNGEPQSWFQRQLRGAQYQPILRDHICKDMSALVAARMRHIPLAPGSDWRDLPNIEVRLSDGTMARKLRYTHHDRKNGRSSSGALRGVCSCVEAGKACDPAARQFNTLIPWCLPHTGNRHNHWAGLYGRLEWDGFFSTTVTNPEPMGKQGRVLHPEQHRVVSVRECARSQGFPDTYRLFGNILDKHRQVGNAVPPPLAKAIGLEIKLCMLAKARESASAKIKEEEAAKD

For `N#Cc1c(SC(C(N)=O)c2ccccc2)nc(N2CCC(N3CCOCC3)CC2)c(C#N)c1C1CC1` (centres unmarked) [Example 16], the “DNMT1 BioChemical (pIC50 category)” value on DNMT1 (setting [2]) is reported as “D (Category D: ≥6.5)”. In addition, the EC50 in assay [1] was < 0.316 µM.

Take `CCc1c(C#N)c(SCc2ccc(N(C)S(C)(=O)=O)cc2)nc(N2CCC(NCCOC)CC2)c1C#N` [Example 557, N-(4-(((3,5-dicyano-4-ethyl-6-(4-((2-methoxyethyl)amino)piperidin-1-yl)pyridin-2-yl)thio)methyl)phenyl)-N-methylmethanesulfonamide]: the “DNMT1 BioChemical (pIC50 category)” value on DNMT1 (setting [2]) was “D (Category D: ≥6.5)”. In addition, the EC50 in assay [1] is < 0.316 µM.

In the case of `CCc1c(C#N)c(SCc2ccc3c(c2)OCO3)nc(N2CCCN(C)CC2)c1C#N` [Example 346, 2-((Benzo[1,3]dioxol-5-ylmethyl)thio)-4-ethyl-6-(4-methyl-1,4-diazepan-1-yl)pyridine-3,5-dicarbonitrile], the IC50 on DNMT1 (setting [3]) is 0.316 to 1 µM. In addition, the EC50 in assay [1] was > 31.6 µM.

As to `CCc1c(C#N)c(SC(C(N)=O)c2ccccc2)nc(N2CCC(NCC(N)=O)CC2)c1C#N` (centres unmarked) [Example 393, 2-((6-(4-((2-Amino-2-oxoethyl)amino)piperidin-1-yl)-3,5-dicyano-4-ethylpyridin-2-yl)thio)-2-phenylacetamide], the “DNMT1 BioChemical (pIC50 category)” value on DNMT1 (setting [2]) was “D (Category D: ≥6.5)”. Further, in assay [1], the EC50 was 0.316 to 1 µM.

Turning to `CCc1c(C#N)c(S[C@@H](C(N)=O)c2ccccc2)nc(N2CC[C@](O)(CO)C2)c1C#N` [Example 689, (R)-2-((3,5-dicyano-4-ethyl-6-((R)-3-hydroxy-3-(hydroxymethyl)pyrrolidin-1-yl)pyridin-2-yl)thio)-2-phenylacetamide], the “DNMT1 BioChemical (pIC50 category)” value at DNMT1 (setting [2]) was “D (Category D: ≥6.5)”. Also, in assay [1], the EC50 was 1 to 31.6 µM.

Take `CCc1c(C#N)c(SC(C(N)=O)c2ccccc2)nc(N2CCC(N)(C(N)=O)CC2)c1C#N` (centres unmarked) [Example 251]: the IC50 on DNMT1 (setting [3]) is 1 to 31.6 µM. In assay [1], the EC50 is 1 to 31.6 µM.

Consider `CCc1c(C#N)c(SC(C(N)=O)c2ccccc2)nc(N(C)CCN2CCC[C@H]2CO)c1C#N` (stereo partly drawn) [Example 475, 2-((3,5-dicyano-4-ethyl-6-((2-((S)-2-(hydroxymethyl)pyrrolidin-1-yl)ethyl)(methyl)amino)pyridin-2-yl)thio)-2-phenylacetamide], for which the “DNMT1 BioChemical (pIC50 category)” value at DNMT1 (setting [2]) is reported as “D (Category D: ≥6.5)”. In addition, the EC50 in assay [1] is < 0.316 µM.

Turning to `CCc1c(C#N)c(SC(C(N)=O)c2ccc(F)cc2)nc(N2CCC[C@H](CNCC(C)(C)C)C2)c1C#N` (stereo partly drawn) [Example 594, 2-((3,5-dicyano-4-ethyl-6-((R)-3-((neopentylamino)methyl)piperidin-1-yl)pyridin-2-yl)thio)-2-(4-fluorophenyl)acetamide], the “DNMT1 BioChemical (pIC50 category)” value at DNMT1 (setting [2]) is “D (Category D: ≥6.5)”. Besides, the EC50 in assay [1] is < 0.316 µM.

`N#Cc1c(SC(C(N)=O)c2ccccc2)nc(N2CCNC(=O)CC2)c(C#N)c1C1CC1` (centres unmarked) [Example 110, 2-{[3,5-Dicyano-4-cyclopropyl-6-(5-oxo-1,4-diazepan-1-yl)pyridin-2-yl]sulfanyl}-2-phenylacetamide]: the IC50 on DNMT1 (setting [3]) and at DNMT1 (setting [4]) was 0.316 to 1 µM each time. Besides, in assay [1], the EC50 was 1 to 31.6 µM.

Take `CCc1c(C#N)c(SC(C(N)=O)c2ccc(F)cc2)nc(N2CC[C@H](N(C)C)C2)c1C#N` (stereo partly drawn) [Example 544, 2-((3,5-dicyano-6-((S)-3-(dimethylamino)pyrrolidin-1-yl)-4-ethylpyridin-2-yl)thio)-2-(4-fluorophenyl)acetamide]: the “DNMT1 BioChemical (pIC50 category)” value at DNMT1 (setting [2]) is recorded as “D (Category D: ≥6.5)”. In addition, the EC50 in assay [1] was 1 to 31.6 µM.

Regarding `CCc1c(C#N)c(SCCN(C)C)nc(SC(C(N)=O)c2ccccc2)c1C#N` (centres unmarked) [Example 218, 2-((3,5-Dicyano-6-((2-(dimethylamino)ethyl)thio)-4-ethylpyridin-2-yl)thio)-2-phenylacetamide], the IC50 at DNMT1 (setting [3]) is 0.316 to 1 µM. The EC50 in assay [1] is < 0.316 µM.

With `CCc1c(C#N)c(SCc2ccc(N(C)S(C)(=O)=O)cc2)nc(N(C)CCNCCF)c1C#N` [Example 500], the “DNMT1 BioChemical (pIC50 category)” value on DNMT1 (setting [2]) is on record as “D (Category D: ≥6.5)”. The EC50 in assay [1] was 1 to 31.6 µM.

As to `CCc1c(C#N)c(SC(C(N)=O)c2ccccc2)nc(N(C)CC(=O)N2CCC(O)CC2)c1C#N` (centres unmarked) [Example 621, 2-((3,5-dicyano-4-ethyl-6-((2-(4-hydroxypiperidin-1-yl)-2-oxoethyl)(methyl)amino)pyridin-2-yl)thio)-2-phenylacetamide], on DNMT1 (setting [2]), the “DNMT1 BioChemical (pIC50 category)” value is “D (Category D: ≥6.5)”. Moreover, in assay [1], the EC50 was < 0.316 µM.

For the compound `CCc1c(C#N)c(SCc2ccc(N(C)S(C)(=O)=O)cc2)nc(N2CCC(N)CC2)c1C#N` [Example 587, N-(4-(((6-(4-aminopiperidin-1-yl)-3,5-dicyano-4-ethylpyridin-2-yl)thio)methyl)phenyl)-N-methylmethanesulfonamide], the “DNMT1 BioChemical (pIC50 category)” value on DNMT1 (setting [2]) is reported as “D (Category D: ≥6.5)”. The EC50 in assay [1] was < 0.316 µM.

Turning to `CCc1c(C#N)c(SC(C(N)=O)c2cc(C)ccn2)nc(N2CCCN(C)CC2)c1C#N` (centres unmarked) [Example 208], on DNMT1 (setting [3]), the IC50 was 0.316 to 1 µM. The EC50 in assay [1] was 0.316 to 1 µM.

With `CCc1c(C#N)c(SC(C(N)=O)c2ccc(F)cc2)nc(N2CC[C@H](O)C2)c1C#N` (stereo partly drawn) [Example 427, 2-((3,5-dicyano-4-ethyl-6-((S)-3-hydroxypyrrolidin-1-yl)pyridin-2-yl)thio)-2-(4-fluorophenyl) acetamide], the “DNMT1 BioChemical (pIC50 category)” value on DNMT1 (setting [2]) is on record as “D (Category D: ≥6.5)”. Further, the EC50 in assay [1] is 0.316 to 1 µM.

For the compound `CCc1c(C#N)c(SCc2ccc(N(C)S(C)(=O)=O)cc2)nc(N(C)CCN(CC)CC)c1C#N` [Example 579, N-(4-(((3,5-dicyano-6-((2-(diethylamino)ethyl)(methyl)amino)-4-ethylpyridin-2-yl)thio)methyl)phenyl)-N-methylmethanesulfonamide], the “DNMT1 BioChemical (pIC50 category)” value at DNMT1 (setting [2]) is “D (Category D: ≥6.5)”. The EC50 in assay [1] is < 0.316 µM.

For the compound `CCc1c(C#N)c(SC(C(N)=O)c2ccccc2)nc(N2CCC3(CC2)CNC(=O)O3)c1C#N` (centres unmarked) [Example 256, 2-((3,5-Dicyano-4-ethyl6-(2-oxo-1-oxa-3,8-diazaspiro[4.5]decan-8-yl)pyridin-2-yl)thio)-2-phenylacetamide], the IC50 at DNMT1 (setting [3]) was 0.316 to 1 µM. For the same compound, the EC50 in assay [1] is 1 to 31.6 µM.

Take `CCc1c(C#N)c(S[C@@H](C(N)=O)c2ccccc2)nc(N(C)CC(N)=O)c1C#N` (single isomer, unassigned) [Example 413, 2-((6-((2-amino-2-oxoethyl)(methyl)amino)-3,5-dicyano-4-ethylpyridin-2-yl)thio)-2-phenylacetamide]: on DNMT1 (setting [3]), the IC50 was < 0.316 µM. Further, in assay [1], the EC50 is < 0.316 µM.

Consider `CCc1c(C#N)c(SCc2ccc(N(C)S(C)(=O)=O)cc2)nc(N2CCC(NC(C)C)CC2)c1C#N` [Example 556, N-(4-(((3,5-dicyano-4-ethyl-6-(4-(isopropylamino)piperidin-1-yl)pyridin-2-yl)thio)methyl)phenyl)-N-methylmethanesulfonamide], for which the “DNMT1 BioChemical (pIC50 category)” value at DNMT1 (setting [2]) is given as “D (Category D: ≥6.5)”. Further, the EC50 in assay [1] was < 0.316 µM.

For the compound `CCc1c(C#N)c(SCc2ccc(COC(C)=O)cc2)nc(N2CCCN(C)CC2)c1C#N` [Example 82, 4-(((3,5-Dicyano-4-ethyl-6-(4-methyl-1,4-diazepan-1-yl)pyridin-2-yl)thio)methyl)benzyl acetate], the IC50 on DNMT1 (setting [3]) and at DNMT1 (setting [4]) was 0.316 to 1 µM each time. For the same compound, the EC50 in assay [1] is 1 to 31.6 µM.

Regarding `CCc1c(C#N)c(SC(C(N)=O)c2ccccc2)nc(N2CCOC(CNC)C2)c1C#N` (centres unmarked) [Example 563, 2-((3,5-dicyano-4-ethyl-6-(2-((methylamino)methyl)morpholino)pyridin-2-yl)thio)-2-phenylacetamide], at DNMT1 (setting [2]), the “DNMT1 BioChemical (pIC50 category)” value was “D (Category D: ≥6.5)”. Besides, in assay [1], the EC50 was < 0.316 µM.

`CCc1c(C#N)c(SC(C(N)=O)c2ccccc2)nc(N2CCC(N3CC[C@@H](F)C3)CC2)c1C#N` (stereo partly drawn) [Example 460, 2-((3,5-dicyano-4-ethyl-6-(4-((R)-3-fluoropyrrolidin-1-yl)piperidin-1-yl)pyridin-2-yl)thio)-2-phenylacetamide]: on DNMT1 (setting [2]), the “DNMT1 BioChemical (pIC50 category)” value is listed as “D (Category D: ≥6.5)”. For the same compound, in assay [1], the EC50 was < 0.316 µM.

Take `CCc1c(C#N)c(SC(C(N)=O)c2ccccc2)nc(N(C)CCNCC(C)(C)C)c1C#N` (centres unmarked) [Example 488, 2-((3,5-dicyano-4-ethyl-6-(methyl(2-(neopentylamino)ethyl)amino)pyridin-2-yl)thio)-2-phenylacetamide]: the “DNMT1 BioChemical (pIC50 category)” value on DNMT1 (setting [2]) is on record as “D (Category D: ≥6.5)”. Also, the EC50 in assay [1] is < 0.316 µM.

Regarding `CCc1c(C#N)c(SC(C(N)=O)c2ccccn2)nc(N2CC[C@H](O)C2)c1C#N` (stereo partly drawn) [Example 322, 2-((3,5-Dicyano-4-ethyl-6-((S)-3-hydroxypyrrolidin-1-yl)pyridin-2-yl)thio)-2-(pyridin-2-yl)acetamide], the “DNMT1 BioChemical (pIC50 category)” value at DNMT1 (setting [2]) is on record as “D (Category D: ≥6.5)”. Further, in assay [1], the EC50 is 0.316 to 1 µM.

As for `CCc1c(C#N)c(SC(C(N)=O)c2ccccc2)nc(N(C)CCN)c1C#N` (centres unmarked) [Example 144, 2-((6-((2-Aminoethyl)(methyl)amino)-3,5-dicyano-4-ethylpyridin-2-yl)thio)-2-phenylacetamide, Trifluoroacetic Acid Salt], on DNMT1 (setting [2]), the “DNMT1 BioChemical (pIC50 category)” value was “D (Category D: ≥6.5)”. The EC50 in assay [1] was < 0.316 µM.

Consider `CCc1c(C#N)c(SCc2ccc(N(C)S(C)(=O)=O)cc2)nc(N2CCC(NC(=O)CN)CC2)c1C#N` [Example 590, 2-amino-N-(1-(3,5-dicyano-4-ethyl-6-((4-(N-methylmethylsulfonamido)benzyl)thio)pyridin-2-yl)piperidin-4-yl)acetamide], for which the “DNMT1 BioChemical (pIC50 category)” value at DNMT1 (setting [2]) is given as “D (Category D: ≥6.5)”. For the same compound, the EC50 in assay [1] is 1 to 31.6 µM.
